Key:
Settings in all cases: human; call rule not given here
Hepatotoxicity [1] = test: FDA HLAED, gamma-glutamyl transferase (GGT) increase
Hepatotoxicity [2] = test: FDA HLAED, serum glutamic oxaloacetic transaminase (SGOT) increase
Hepatotoxicity [3] = test: FDA HLAED, alkaline phosphatase increase
Hepatotoxicity [4] = test: FDA HLAED, serum glutamic pyruvic transaminase (SGPT) increase
Hepatotoxicity [5] = test: FDA HLAED, liver enzyme composite activity
Hepatotoxicity [6] = test: FDA HLAED, lactate dehydrogenase (LDH) increase
Wherever GGT Increase - Index Value is given: reference of the scale not given here.
Wherever LDH Increase - Index Value is given: reference of the scale not given here.

Compound | GGT Increase - Activity Score (Hepatotoxicity [1]) | GGT Increase - Index Value (Hepatotoxicity [1]) | GGT Increase - Number of Reports (Hepatotoxicity [1]) | SGOT Increase - Activity Score (Hepatotoxicity [2]) | SGOT Increase - Index Value (Hepatotoxicity [2]) | SGOT Increase - Number of Reports (Hepatotoxicity [2]) | Alkaline Phosphatase Increase - Activity Score (Hepatotoxicity [3]) | Alkaline Phosphatase Increase - Index Value (Hepatotoxicity [3]) | Alkaline Phosphatase Increase - Number of Reports (Hepatotoxicity [3]) | SGPT Increase - Activity Score (Hepatotoxicity [4]) | SGPT Increase - Index Value (Hepatotoxicity [4]) | SGPT Increase - Number of Reports (Hepatotoxicity [4]) | Composite Activity - Active (Hepatotoxicity [5]) | Composite Activity - Marginal (Hepatotoxicity [5]) | Composite Activity - Score (Hepatotoxicity [5]) | LDH Increase - Activity Score (Hepatotoxicity [6]) | LDH Increase - Index Value (Hepatotoxicity [6]) | LDH Increase - Number of Reports (Hepatotoxicity [6]) | other results
Cc1cccc(C)c1NC(=O)C(C)N (stereo unspecified) [TOCAINIDE] | Inactive | 0 | < 4 | Marginally Active | 3.5 | >= 4 | Inactive | 1.7 | >= 4 | Inactive | 2.2 | >= 4 | 0 | 1 | Inactive | Inactive | 1.7 | >= 4 | 
CC1(C)O[C@@H]2[C@@H](CO[C@@]3(COS(N)(=O)=O)OC(C)(C)O[C@@H]23)O1 [TOPIRAMATE] | Inactive | 0 | < 4 | Inactive | 0 | < 4 | Inactive | 3.5 | < 4 | Inactive | 0 | < 4 | 0 | 0 | Inactive | Inactive | 0 | < 4 | 
CC[C@@]1(O)C(=O)OCc2c1cc1n(c2=O)Cc2cc3c(CN(C)C)c(O)ccc3nc2-1 [TOPOTECAN] | Inactive | 11.6 | < 4 | Inactive | 0 | < 4 | Inactive | 0 | < 4 | Inactive | 0 | < 4 | 0 | 0 | Inactive | Inactive | 11.6 | < 4 | 
Cc1cccc(Nc2ccncc2S(=O)(=O)NC(=O)NC(C)C)c1 [TORSEMIDE] | Inactive | 0 | < 4 | Inactive | 0.5 | < 4 | Inactive | 0 | < 4 | Inactive | 0.5 | < 4 | 0 | 0 | Inactive | Inactive | 0 | < 4 | 
COc1cccc(C2(O)CCCCC2CN(C)C)c1 (stereo unspecified) [TRAMADOL] | Inactive | 0.2 | < 4 | Inactive | 0.5 | >= 4 | Inactive | 0.1 | < 4 | Inactive | 0.8 | >= 4 | 0 | 0 | Inactive | Inactive | 0.6 | >= 4 | 
CCOC(=O)[C@H](CCc1ccccc1)N[C@@H](C)C(=O)N1[C@H](C(=O)O)C[C@H]2CCCC[C@@H]21 [TRANDOLAPRIL] | Inactive | 0 | < 4 | Inactive | 7 | < 4 | Inactive | 0 | < 4 | Marginally Active | 10.5 | < 4 | 1 | 0 | Inactive | Inactive | 0 | < 4 | 
O=c1n(CCCN2CCN(c3cccc(Cl)c3)CC2)nc2ccccn12 [TRAZODONE] | Inactive | 0 | < 4 | Inactive | 0.3 | < 4 | Inactive | 0.2 | < 4 | Inactive | 0 | < 4 | 0 | 0 | Inactive | Inactive | 0.3 | < 4 | 
CC1=C(/C=C/C(C)=C/C=C/C(C)=C/C(=O)O)C(C)(C)CCC1 [TRETINOIN] | Inactive | 1 | < 4 | Inactive | 0 | < 4 | Inactive | 1 | < 4 | Inactive | 0 | < 4 | 0 | 0 | Inactive | Inactive | 1 | < 4 | 
Cc1nnc2n1-c1ccc(Cl)cc1C(c1ccccc1Cl)=NC2 [TRIAZOLAM] | Inactive | 0 | < 4 | Inactive | 0.3 | < 4 | Inactive | 0.4 | < 4 | Inactive | 0 | < 4 | 0 | 0 | Inactive | Inactive | 0 | < 4 | 
NCCNCCNCCN [TRIENTINE] | Inactive | 0 | < 4 | Inactive | 69.4 | < 4 | Inactive | 0 | < 4 | Inactive | 69.4 | < 4 |  |  |  | Inactive | 0 | < 4 | Composite Activity - Active (Hepatotoxicity [5]; Liver): 0; Composite Activity - Marginal (Hepatotoxicity [5]; Liver): 0; Composite Activity - Score (Hepatotoxicity [5]; Liver): Inactive
O=c1[nH]c(=O)n([C@H]2C[C@H](O)[C@@H](CO)O2)cc1C(F)(F)F [TRIFLURIDINE] | Inactive | 0 | < 4 | Inactive | 0 | < 4 | Inactive | 0 | < 4 | Inactive | 0 | < 4 | 0 | 0 | Inactive | Inactive | 0 | < 4 | 
CN1C(=O)OC(C)(C)C1=O [TRIMETHADIONE] | Marginally Active | No Shipping Units | >= 4 | Active | No Shipping Units | >= 4 | Active | No Shipping Units | >= 4 | Marginally Active | No Shipping Units | >= 4 | 2 | 3 | Active | Marginally Active | No Shipping Units | >= 4 | 

From ChEMBL document CHEMBL1697781, “Assessment of the health effects of chemicals in humans: II. Construction of an adverse effects database for QSAR modeling” (Curr Drug Discov Technol, 2004)
